Each structure is given as a SMILES string. pIC50: −log10 of the molar value. Bounds are passed on as bounds.

Test [1] addresses T1, BCR-KIT BaF3 cells (Homo sapiens, UniProt P10721).
T1 construct: fused on or other part: P11274 (Breakpoint cluster region protein)
In words: BaF3 BCR-KIT cell proliferation assay (ATPlite). The following applies: read-out: Inhibition of Cell Proliferation IC50, BCR/BaF3 Kit. In kind it is cell-based. The gist of the method: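 BaF3 lines were seeded at 10,000 cells/well in growth medium with 1 mg/mL G418 but no IL-3, and MV-4-11 cells at 25,000 cells/well; plates were left overnight at 37 °C. Compounds were added as an 8-point 1:3 series with a top concentration of 10 μM and incubated 3 days. IC50 was taken from ATPlite luminescence.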

The target of test [2] is T2, CYP1A2 (Homo sapiens, UniProt P05177).
T2 sequence (P05177 1-516): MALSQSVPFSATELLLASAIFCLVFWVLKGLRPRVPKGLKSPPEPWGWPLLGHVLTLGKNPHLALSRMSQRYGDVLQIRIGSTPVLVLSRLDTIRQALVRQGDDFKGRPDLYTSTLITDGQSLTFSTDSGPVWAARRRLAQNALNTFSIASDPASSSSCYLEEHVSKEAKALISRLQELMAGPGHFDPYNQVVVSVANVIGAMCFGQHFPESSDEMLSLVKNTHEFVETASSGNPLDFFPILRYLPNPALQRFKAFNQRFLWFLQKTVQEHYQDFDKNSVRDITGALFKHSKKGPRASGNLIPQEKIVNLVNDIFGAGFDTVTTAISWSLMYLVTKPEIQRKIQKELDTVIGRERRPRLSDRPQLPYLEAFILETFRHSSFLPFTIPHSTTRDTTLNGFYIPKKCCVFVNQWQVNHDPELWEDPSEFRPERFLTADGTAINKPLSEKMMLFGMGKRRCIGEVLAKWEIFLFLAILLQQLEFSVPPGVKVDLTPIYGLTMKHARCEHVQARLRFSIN
In words: CYP1A2 inhibition (fluorescent substrate CEC). In kind it is in vitro ADME. The settings on record: read-out: Cyp IC50 1A2. The gist of the method:
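Test compounds, 10-point 1:1 serial dilutions in NADPH-regenerating cofactor mix, were preincubated 10 min at 37° C before recombinant enzyme and fluorogenic substrate reactions at 37° C (CYP1A2 15 min; CYP2C9 45 min; CYP2C19, 2D6 30 min). Product fluorescence was read at 409 ex with 460 em (1A2, 2C19) or 530 em (2C9, 2D6), and IC50 fitted from signal versus concentration.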

T1 sequence (P10721 589-937): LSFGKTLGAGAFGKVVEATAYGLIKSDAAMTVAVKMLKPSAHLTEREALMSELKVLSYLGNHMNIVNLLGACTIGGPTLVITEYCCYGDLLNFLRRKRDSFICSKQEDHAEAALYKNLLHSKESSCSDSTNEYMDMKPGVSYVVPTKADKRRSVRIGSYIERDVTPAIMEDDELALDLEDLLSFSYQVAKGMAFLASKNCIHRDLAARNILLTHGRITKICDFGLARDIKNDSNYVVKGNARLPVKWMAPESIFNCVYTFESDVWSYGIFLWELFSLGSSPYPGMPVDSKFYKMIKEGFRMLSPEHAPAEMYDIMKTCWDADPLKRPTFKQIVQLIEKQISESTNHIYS

Regarding `CNc1ncnc2[nH]cc(C(=O)c3ccc(NC4CCC(F)(F)CC4)nc3Cl)c12` [Compound P-4058, [2-chloro-6-[(4,4-difluorocyclohexyl)amino]-3-pyridyl]-[4-(methylamino)-7H-pyrrolo[2,3-d]pyrimidin-5-yl]methanone], the values for the pIC50 in test [1] and in test [2] were above 6.00 and below 5.00, respectively.
For `CCc1ccc(Nc2ccc(C(=O)c3c[nH]c4ncnc(NC5CCC5)c34)c(F)n2)cn1` [Compound P-4095, [4-(cyclobutylamino)-7H-pyrrolo[2,3-d]pyrimidin-5-yl]-[6-[(6-ethyl-3-pyridyl)amino]-2-fluoro-3-pyridyl]methanone] the same measures were above 7.00 and below 5.00.
For the compound `COc1ccc(Nc2ccc(C(=O)c3c[nH]c4ncnc(N5CCOCC5)c34)c(F)n2)cn1` [Compound P-4070, [2-fluoro-6-[(6-methoxy-3-pyridyl)amino]-3-pyridyl]-(4-morpholino-7H-pyrrolo[2,3-d]pyrimidin-5-yl)methanone], the results for the pIC50 in test [1] and in test [2] were below 6.00 and below 5.00, respectively.
Turning to `O=C(c1ccc(NC2CCC(F)(F)CC2)nc1Cl)c1c[nH]c2ncnc(NC3CC3)c12` [Compound P-4059, [2-chloro-6-[(4,4-difluorocyclohexyl)amino]-3-pyridyl]-[4-(cyclopropylamino)-7H-pyrrolo[2,3-d]pyrimidin-5-yl]methanone], the pIC50 in test [1] is below 6.00; in test [2] it was below 5.00.
The corresponding values for `CNc1ncnc2[nH]cc(C(=O)c3ccc(Nc4ccc(C(F)(F)F)nc4)nc3F)c12` [Compound P-4092, [2-fluoro-6-[[6-(trifluoromethyl)-3-pyridyl]amino]-3-pyridyl]-[4-(methylamino)-7H-pyrrolo[2,3-d]pyrimidin-5-yl]methanone] are above 7.00 and above 5.30.
For `CCc1ccc(Nc2ccc(C(=O)c3c[nH]c4ncnc(NC5CCCC5)c34)c(F)n2)cn1` [Compound P-4099, [4-(cyclopentylamino)-7H-pyrrolo[2,3-d]pyrimidin-5-yl]-[6-[(6-ethyl-3-pyridyl)amino]-2-fluoro-3-pyridyl]methanone] the same measures were above 7.00 and above 5.30.
As to `CCc1ccc(Nc2ccc(C(=O)c3c[nH]c4ncnc(NC5CC5)c34)c(F)n2)cn1` [Compound P-4125, [4-(cyclopropylamino)-7H-pyrrolo[2,3-d]pyrimidin-5-yl]-[6-[(6-ethyl-3-pyridyl)amino]-2-fluoro-3-pyridyl]methanone], the pIC50 was above 7.00 in test [1] and below 5.00 in test [2].
The corresponding values for `CCCNc1ncnc2[nH]cc(C(=O)c3ccc(Nc4cncc(OC)c4)nc3F)c12` [Compound P-4105, [2-fluoro-6-[(5-methoxy-3-pyridyl)amino]-3-pyridyl]-[4-(propylamino)-7H-pyrrolo[2,3-d]pyrimidin-5-yl]methanone] are below 6.00 and below 5.00.
For `Fc1nc(NC2CCC(F)(F)CC2)ccc1Cc1c[nH]c2ncc(Cl)cc12` [Compound P-3013, [5-(5-Chloro-1H-pyrrolo[2,3-b]pyridin-3-ylmethyl)-6-fluoro-pyridin-2-yl]-(4,4-difluoro-cyclohexyl)-amine] the same measures were below 6.00 and 5.00 to 5.30.
For `COc1cncc(Nc2ccc(C(=O)c3c[nH]c4ncnc(NC(C)C)c34)c(F)n2)c1` [Compound P-4106, [2-fluoro-6-[(5-methoxy-3-pyridyl)amino]-3-pyridyl]-[4-(isopropylamino)-7H-pyrrolo[2,3-d]pyrimidin-5-yl]methanone] the same measures were above 6.00 and above 5.30.
For `COc1cncc(Nc2ccc(C(=O)c3c[nH]c4ncnc(NC5CC5)c34)c(F)n2)c1` [Compound P-4107, [4-(cyclopropylamino)-7H-pyrrolo[2,3-d]pyrimidin-5-yl]-[2-fluoro-6-[(5-methoxy-3-pyridyl)amino]-3-pyridyl]methanone], the pIC50 in test [1] was above 6.00; in test [2], above 5.30.
The corresponding values for `CC(C)Nc1ncnc2[nH]cc(C(=O)c3ccc(NC4CCCCC4)nc3Cl)c12` [Compound P-4109, [2-chloro-6-(cyclohexylamino)-3-pyridyl]-[4-(isopropylamino)-7H-pyrrolo[2,3-d]pyrimidin-5-yl]methanone] are above 6.00 and below 5.00.
The corresponding values for `CCc1ccc(Nc2ccc(C(=O)c3c[nH]c4ncnc(NCC(C)(C)O)c34)c(F)n2)cn1` [Compound P-4064, [6-[(6-ethyl-3-pyridyl)amino]-2-fluoro-3-pyridyl]-[4-[(2-hydroxy-2-methyl-propyl)amino]-7H-pyrrolo[2,3-d]pyrimidin-5-yl]methanone] are above 7.00 and below 5.00.
For `O=C(c1ccc(NC2CCC(F)(F)CC2)nc1F)c1c[nH]c2ncnc(NC3CC3)c12` [Compound P-4062, [4-(cyclopropylamino)-7H-pyrrolo[2,3-d]pyrimidin-5-yl]-[6-[(4,4-difluorocyclohexyl)amino]-2-fluoro-3-pyridyl]methanone] the same measures were above 6.00 and below 5.00.
As to `Cc1cnc2[nH]cc(Cc3cnc(Nc4ccc(F)cc4)nc3)c2c1` [Compound P-3010, (4-Fluoro-phenyl)-[5-(5-methyl-1H-pyrrolo[2,3-b]pyridin-3-ylmethyl)-pyrimidin-2-yl]-amine], the values for the pIC50 in test [1] and in test [2] were above 6.00 and below 5.00, respectively.
For the compound `CNc1ncnc2[nH]cc(C(=O)c3ccc(NC4CCC(F)(F)CC4)nc3)c12` [Compound P-4089, [6-[(4,4-difluorocyclohexyl)amino]-3-pyridyl]-[4-(methylamino)-7H-pyrrolo[2,3-d]pyrimidin-5-yl]methanone], the values for the pIC50 in test [1] and in test [2] were above 6.00 and below 5.00, respectively.
For `CCNc1ncnc2[nH]cc(C(=O)c3ccc(Nc4ccc(CC)nc4)nc3F)c12` [Compound P-4123, [4-(ethylamino)-7H-pyrrolo[2,3-d]pyrimidin-5-yl]-[6-[(6-ethyl-3-pyridyl)amino]-2-fluoro-3-pyridyl]methanone] the same measures were above 7.00 and below 5.00.
The corresponding values for `CCC(CC)Nc1ncnc2[nH]cc(C(=O)c3ccc(Nc4ccc(OC)nc4)nc3F)c12` [Compound P-4077, [4-(1-ethylpropylamino)-7H-pyrrolo[2,3-d]pyrimidin-5-yl]-[2-fluoro-6-[(6-methoxy-3-pyridyl)amino]-3-pyridyl]methanone] are above 7.00 and 5.00 to 5.30.
Regarding `CCc1ccc(Nc2ccc(C(=O)c3c[nH]c4ncnc(N[C@@H](C)c5ccc(F)cc5)c34)c(F)n2)cn1` [Compound P-4097, [6-[(6-ethyl-3-pyridyl)amino]-2-fluoro-3-pyridyl]-[4-[[(1S)-1-(4-fluorophenyl)ethyl]amino]-7H-pyrrolo[2,3-d]pyrimidin-5-yl]methanone], the pIC50 in test [1] is above 6.00; in test [2] it was above 5.30.
For `CCC(C)Nc1ncnc2[nH]cc(C(=O)c3ccc(Nc4ccc(OC)nc4)nc3F)c12` (stereo not drawn) [Compound P-4078, [2-fluoro-6-[(6-methoxy-3-pyridyl)amino]-3-pyridyl]-[4-(sec-butylamino)-7H-pyrrolo[2,3-d]pyrimidin-5-yl]methanone] the same measures were above 7.00 and 5.00 to 5.30.
For `COc1ccc(Nc2ccc(C(=O)c3c[nH]c4ncnc(NCC5CCCO5)c34)c(F)n2)cn1` (stereo not drawn) [Compound P-4073, [2-fluoro-6-[(6-methoxy-3-pyridyl)amino]-3-pyridyl]-[4-(tetrahydrofuran-2-ylmethylamino)-7H-pyrrolo[2,3-d]pyrimidin-5-yl]methanone] the same measures were above 6.00 and below 5.00.
As for `CCc1ccc(Nc2ccc(C(=O)c3c[nH]c4ncnc(NC5CCC(F)(F)CC5)c34)c(F)n2)cn1` [Compound P-4096, [4-[(4,4-difluorocyclohexyl)amino]-7H-pyrrolo[2,3-d]pyrimidin-5-yl]-[6-[(6-ethyl-3-pyridyl)amino]-2-fluoro-3-pyridyl]methanone], the pIC50 was above 6.00 in test [1] and above 5.30 in test [2].
For `CNc1ncnc2[nH]cc(C(=O)c3ccc(Nc4ccc(C)nc4)nc3F)c12` [Compound P-4115, [2-fluoro-6-[(6-methyl-3-pyridyl)amino]-3-pyridyl]-[4-(methylamino)-7H-pyrrolo[2,3-d]pyrimidin-5-yl]methanone] the same measures were above 6.00 and above 5.30.
The corresponding values for `CCc1ccc(Nc2ccc(C(=O)c3c[nH]c4ncnc(NCC5CC5)c34)c(F)n2)cn1` [Compound P-4118, [4-(cyclopropylmethylamino)-7H-pyrrolo[2,3-d]pyrimidin-5-yl]-[6-[(6-ethyl-3-pyridyl)amino]-2-fluoro-3-pyridyl]methanone] are above 7.00 and below 5.00.

The values above are taken from patent US8901118B2, “Compounds and methods for kinase modulation, and indications therefor” (Plexxikon Inc., priority 2010, dated 2014).
